Measurements: ChEMBL document CHEMBL4308844, “Allosteric Modulation of Class A GPCRs: Targets, Agents, and Emerging Concepts” (J Med Chem, 2018)

Tests used:
[1] = target: T1, Muscarinic acetylcholine receptor M5 (Homo sapiens) (UniProt P08912); assay: Positive allosteric modulation of M5 AchR (unknown origin) assessed as increase in acetylcholine-induced response relative to control
T1 sequence (whole entry): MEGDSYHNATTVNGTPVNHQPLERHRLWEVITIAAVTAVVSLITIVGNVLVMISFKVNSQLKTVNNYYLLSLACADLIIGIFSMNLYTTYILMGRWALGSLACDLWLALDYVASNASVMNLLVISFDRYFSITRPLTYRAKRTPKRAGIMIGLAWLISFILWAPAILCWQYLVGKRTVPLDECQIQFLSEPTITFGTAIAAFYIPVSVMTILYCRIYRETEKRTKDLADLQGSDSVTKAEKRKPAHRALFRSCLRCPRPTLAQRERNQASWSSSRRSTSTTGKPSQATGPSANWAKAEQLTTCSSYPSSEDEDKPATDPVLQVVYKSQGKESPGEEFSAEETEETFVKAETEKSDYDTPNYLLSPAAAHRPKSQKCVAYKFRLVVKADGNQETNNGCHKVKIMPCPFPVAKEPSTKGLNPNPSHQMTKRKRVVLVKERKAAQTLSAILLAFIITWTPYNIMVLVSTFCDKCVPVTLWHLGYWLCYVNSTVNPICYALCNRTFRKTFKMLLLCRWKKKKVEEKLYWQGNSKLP

[2] = target: T2, Muscarinic acetylcholine receptor M1 (Homo sapiens, UniProt P11229); assay: Positive allosteric modulation of M1 AchR (unknown origin)
T2 sequence (P11229 whole entry): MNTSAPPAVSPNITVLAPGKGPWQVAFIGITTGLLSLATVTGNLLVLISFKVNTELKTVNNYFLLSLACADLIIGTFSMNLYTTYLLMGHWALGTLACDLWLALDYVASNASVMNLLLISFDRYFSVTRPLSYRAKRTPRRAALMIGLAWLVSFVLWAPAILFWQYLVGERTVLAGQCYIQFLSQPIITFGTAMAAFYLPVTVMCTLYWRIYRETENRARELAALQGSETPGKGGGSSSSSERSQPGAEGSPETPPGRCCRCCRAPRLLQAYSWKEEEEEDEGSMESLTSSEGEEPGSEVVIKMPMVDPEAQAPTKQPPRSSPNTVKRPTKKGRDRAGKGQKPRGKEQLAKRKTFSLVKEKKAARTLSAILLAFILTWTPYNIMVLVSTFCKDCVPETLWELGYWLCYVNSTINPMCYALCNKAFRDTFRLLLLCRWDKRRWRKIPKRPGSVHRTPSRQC

[3] = target: D(2) dopamine receptor (Homo sapiens) (UniProt P14416); assay: Negative allosteric modulation of D2R (unknown origin) assessed as decrease in [3H]NPA binding at 10 uM relative to control
Chain of D(2) dopamine receptor (Homo sapiens) (P14416 whole entry): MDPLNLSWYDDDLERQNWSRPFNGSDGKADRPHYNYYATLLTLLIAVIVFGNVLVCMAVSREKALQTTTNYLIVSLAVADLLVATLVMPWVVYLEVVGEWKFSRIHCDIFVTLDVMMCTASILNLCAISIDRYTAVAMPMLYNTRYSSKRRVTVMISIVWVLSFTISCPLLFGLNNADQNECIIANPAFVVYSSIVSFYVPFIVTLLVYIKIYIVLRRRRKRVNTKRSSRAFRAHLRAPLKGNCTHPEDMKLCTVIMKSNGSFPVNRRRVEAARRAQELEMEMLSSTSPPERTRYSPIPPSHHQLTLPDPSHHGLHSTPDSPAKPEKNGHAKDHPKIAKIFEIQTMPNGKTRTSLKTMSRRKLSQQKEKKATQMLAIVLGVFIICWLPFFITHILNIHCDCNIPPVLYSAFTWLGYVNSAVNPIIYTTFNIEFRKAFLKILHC

[4] = target: D(2) dopamine receptor (Homo sapiens) (UniProt P14416); assay: Negative allosteric modulation of D2R (unknown origin) assessed as decrease in [3H]NPA binding at 1 uM relative to control
[5] = target: T3, C-X-C chemokine receptor type 1 (Homo sapiens, UniProt P25024); assay: Inhibition of CXCR1 (unknown origin)
T3 sequence (P25024 whole entry): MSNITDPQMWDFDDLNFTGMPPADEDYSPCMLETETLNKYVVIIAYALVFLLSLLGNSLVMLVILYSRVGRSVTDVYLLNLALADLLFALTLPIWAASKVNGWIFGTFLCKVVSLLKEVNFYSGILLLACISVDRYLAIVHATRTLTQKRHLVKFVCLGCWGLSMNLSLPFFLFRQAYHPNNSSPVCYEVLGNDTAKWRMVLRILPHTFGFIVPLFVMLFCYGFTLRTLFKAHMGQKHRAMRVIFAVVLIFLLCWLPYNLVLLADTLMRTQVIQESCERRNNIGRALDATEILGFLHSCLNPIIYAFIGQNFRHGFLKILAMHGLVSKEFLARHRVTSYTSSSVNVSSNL

[6] = target: T4, C-X-C chemokine receptor type 2 (Homo sapiens, UniProt P25025); assay: Inhibition of CXCR2 (unknown origin)
T4 sequence (P25025 whole entry): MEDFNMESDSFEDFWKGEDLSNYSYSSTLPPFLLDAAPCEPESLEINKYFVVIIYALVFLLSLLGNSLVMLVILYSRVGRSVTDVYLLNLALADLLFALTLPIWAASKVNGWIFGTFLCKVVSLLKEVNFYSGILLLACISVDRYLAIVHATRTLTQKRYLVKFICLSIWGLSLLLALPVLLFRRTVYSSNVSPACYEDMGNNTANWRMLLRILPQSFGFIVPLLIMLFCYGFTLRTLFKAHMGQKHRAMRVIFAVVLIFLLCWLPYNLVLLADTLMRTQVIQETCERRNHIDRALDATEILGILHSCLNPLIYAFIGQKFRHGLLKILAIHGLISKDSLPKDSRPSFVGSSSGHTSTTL

[7] = target: T5, C-X-C chemokine receptor type 3 (Homo sapiens) (UniProt P49682); assay: Inhibition of [3H]RAMX3 binding to CXCR3 (unknown origin) relative to control; details: concentration not given here
T5 sequence (whole entry): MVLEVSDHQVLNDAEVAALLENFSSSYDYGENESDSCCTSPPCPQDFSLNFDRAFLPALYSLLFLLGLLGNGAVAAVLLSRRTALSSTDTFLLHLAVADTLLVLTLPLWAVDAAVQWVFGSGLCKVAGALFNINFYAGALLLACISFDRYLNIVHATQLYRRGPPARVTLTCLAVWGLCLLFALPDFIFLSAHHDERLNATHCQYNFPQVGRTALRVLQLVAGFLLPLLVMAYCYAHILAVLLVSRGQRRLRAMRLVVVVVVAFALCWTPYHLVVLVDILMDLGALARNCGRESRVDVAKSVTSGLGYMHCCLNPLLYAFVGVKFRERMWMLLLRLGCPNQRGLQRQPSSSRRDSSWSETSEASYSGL

[8] = target: T6, 5-hydroxytryptamine receptor 2C (Homo sapiens) (UniProt P28335); assay: Positive allosteric modulation of 5-HT2C receptor (unknown origin) assessed as increase in 5-HT-induced displacement of [3H]mesulergine by measuring fold reduction in 5-HT Ki at 20 uM relative to control
T6 sequence (whole entry): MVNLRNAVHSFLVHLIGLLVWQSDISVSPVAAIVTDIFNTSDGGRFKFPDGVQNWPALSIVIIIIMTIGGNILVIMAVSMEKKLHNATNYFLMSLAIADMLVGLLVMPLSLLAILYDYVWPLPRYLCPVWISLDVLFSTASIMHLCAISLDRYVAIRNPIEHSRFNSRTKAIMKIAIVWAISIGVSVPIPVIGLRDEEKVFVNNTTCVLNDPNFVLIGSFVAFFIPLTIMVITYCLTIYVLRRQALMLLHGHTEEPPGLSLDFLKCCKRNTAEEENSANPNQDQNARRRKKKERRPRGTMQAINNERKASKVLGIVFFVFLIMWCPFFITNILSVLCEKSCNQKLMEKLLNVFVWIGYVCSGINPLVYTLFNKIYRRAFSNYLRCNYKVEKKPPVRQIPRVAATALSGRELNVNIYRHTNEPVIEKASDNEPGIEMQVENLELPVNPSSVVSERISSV

[9] = target: T6, 5-hydroxytryptamine receptor 2C (Homo sapiens); assay: Agonist activity at 5-HT2C receptor (unknown origin) expressed in HEK293 cells assessed as IP3 release at 10 uM relative to 5-HT maximal response
[10] = target: T7, Muscarinic acetylcholine receptor M4 (Homo sapiens) (UniProt P08173); assay: Positive allosteric modulation of human M4 AchR expressed in CHO cells assessed as increase in acteylcholine-induced calcium mobilization by FLIPR assay; type: functional, cell-based
T7 sequence (whole entry): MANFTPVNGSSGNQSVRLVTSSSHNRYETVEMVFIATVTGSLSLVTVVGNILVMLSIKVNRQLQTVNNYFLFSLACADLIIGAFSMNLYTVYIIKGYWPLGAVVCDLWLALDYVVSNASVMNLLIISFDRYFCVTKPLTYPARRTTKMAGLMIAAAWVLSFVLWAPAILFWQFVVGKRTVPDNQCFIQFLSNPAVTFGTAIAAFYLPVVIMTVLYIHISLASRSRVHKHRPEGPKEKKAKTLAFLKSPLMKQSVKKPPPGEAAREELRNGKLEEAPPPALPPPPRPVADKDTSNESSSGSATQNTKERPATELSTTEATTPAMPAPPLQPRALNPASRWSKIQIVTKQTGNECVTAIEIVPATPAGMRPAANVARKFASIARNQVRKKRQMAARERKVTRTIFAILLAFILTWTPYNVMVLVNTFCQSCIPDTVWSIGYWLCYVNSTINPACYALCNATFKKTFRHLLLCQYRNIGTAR

[11] = target: Cannabinoid receptor 1 (Mus musculus) (UniProt P47746); assay: Positive allosteric modulation of CB1R in MF1 mouse brain membranes assessed as increase in anandamide-stimulated [35S]GTPgammaS binding after 60 mins relative to control; type: functional, cell membranes
Chain of Cannabinoid receptor 1 (Mus musculus) (P47746 whole entry): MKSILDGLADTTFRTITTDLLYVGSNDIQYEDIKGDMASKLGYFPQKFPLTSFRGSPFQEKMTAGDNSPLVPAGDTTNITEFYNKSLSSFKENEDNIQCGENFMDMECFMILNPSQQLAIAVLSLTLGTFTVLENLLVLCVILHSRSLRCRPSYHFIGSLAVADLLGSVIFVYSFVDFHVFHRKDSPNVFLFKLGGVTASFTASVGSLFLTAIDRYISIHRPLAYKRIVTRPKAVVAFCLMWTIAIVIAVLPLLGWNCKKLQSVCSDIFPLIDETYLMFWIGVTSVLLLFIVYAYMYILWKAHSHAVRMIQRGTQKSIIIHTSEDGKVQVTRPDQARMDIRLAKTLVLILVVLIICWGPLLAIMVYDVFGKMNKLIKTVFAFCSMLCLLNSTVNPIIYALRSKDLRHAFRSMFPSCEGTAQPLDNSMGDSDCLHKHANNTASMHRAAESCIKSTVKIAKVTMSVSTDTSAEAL

[12] = target: Cannabinoid receptor 1 (Mus musculus) (UniProt P47746); assay: Positive allosteric modulation of CB1R in MF1 mouse brain membranes assessed as increase in [3H]CP55940 binding after 60 mins relative to control; type: cell membranes
[13] = target: Cannabinoid receptor 1 (Mus musculus) (UniProt P47746); assay: Positive allosteric modulation of CB1R in MF1 mouse brain membranes assessed as increase in [3H]WIN55212-2 binding after 60 mins relative to control; type: cell membranes
[14] = target: T8, Substance-K receptor (Homo sapiens) (UniProt P21452); assay: Negative allosteric modulation of NK2 receptor (unknown origin) assessed as decrease in agonist-induced cAMP production at 10 uM by cell based FRET assay relative to control; type: functional
T8 sequence (whole entry): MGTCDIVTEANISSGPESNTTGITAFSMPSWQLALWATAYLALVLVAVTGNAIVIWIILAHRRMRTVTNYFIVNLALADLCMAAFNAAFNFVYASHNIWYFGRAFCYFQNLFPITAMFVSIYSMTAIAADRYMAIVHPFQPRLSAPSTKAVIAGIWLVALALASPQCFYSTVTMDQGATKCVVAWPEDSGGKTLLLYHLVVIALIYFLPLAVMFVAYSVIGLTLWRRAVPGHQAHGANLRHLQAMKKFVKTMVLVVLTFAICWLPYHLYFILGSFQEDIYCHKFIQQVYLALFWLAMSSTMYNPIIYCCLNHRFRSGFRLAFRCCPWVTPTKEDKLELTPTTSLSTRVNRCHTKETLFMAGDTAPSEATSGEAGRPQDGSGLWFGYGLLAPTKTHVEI

[15] = target: T9, Muscarinic acetylcholine receptor M4 (Homo sapiens, UniProt P08173); assay: Positive allosteric modulation of human M4 AchR
T9 sequence (P08173 whole entry): T7 sequence (whole entry)

[16] = target: T10, Muscarinic acetylcholine receptor M4 (Rattus norvegicus, UniProt P08485); assay: Positive allosteric modulation of rat M4 AchR
T10 sequence (P08485 whole entry): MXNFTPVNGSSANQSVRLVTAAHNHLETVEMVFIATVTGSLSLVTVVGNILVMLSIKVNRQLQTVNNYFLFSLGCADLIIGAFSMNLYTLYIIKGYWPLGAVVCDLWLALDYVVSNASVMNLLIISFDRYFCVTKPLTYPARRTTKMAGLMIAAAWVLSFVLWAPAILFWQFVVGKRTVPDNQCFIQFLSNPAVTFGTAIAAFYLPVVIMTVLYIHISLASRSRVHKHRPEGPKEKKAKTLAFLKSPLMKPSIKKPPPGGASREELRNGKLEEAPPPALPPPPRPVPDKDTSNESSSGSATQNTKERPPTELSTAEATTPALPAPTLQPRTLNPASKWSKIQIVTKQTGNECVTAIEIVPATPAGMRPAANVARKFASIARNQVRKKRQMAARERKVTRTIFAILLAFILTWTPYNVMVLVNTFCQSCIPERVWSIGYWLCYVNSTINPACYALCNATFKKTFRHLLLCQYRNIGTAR

[17] = target: Cannabinoid receptor 1 (Homo sapiens) (UniProt P21554); assay: Positive allosteric modulation of human CB1R assessed as potentiation of CP55940-induced calcium mobilization at […] by cell based assay relative to control; type: functional
Chain of Cannabinoid receptor 1 (Homo sapiens) (P21554 whole entry): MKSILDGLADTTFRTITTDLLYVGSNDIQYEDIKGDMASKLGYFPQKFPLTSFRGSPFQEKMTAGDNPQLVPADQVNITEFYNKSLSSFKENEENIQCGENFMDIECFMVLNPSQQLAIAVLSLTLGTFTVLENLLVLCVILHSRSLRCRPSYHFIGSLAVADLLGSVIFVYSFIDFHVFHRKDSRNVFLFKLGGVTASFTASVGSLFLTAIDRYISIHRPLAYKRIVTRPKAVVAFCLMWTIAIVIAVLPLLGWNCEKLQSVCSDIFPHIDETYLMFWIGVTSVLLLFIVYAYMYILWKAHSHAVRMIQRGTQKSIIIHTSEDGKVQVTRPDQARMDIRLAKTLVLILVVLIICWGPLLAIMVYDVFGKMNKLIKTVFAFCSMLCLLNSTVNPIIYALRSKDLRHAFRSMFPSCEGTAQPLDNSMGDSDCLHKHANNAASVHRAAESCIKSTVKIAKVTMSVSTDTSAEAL

CCN(Cc1ccccc1C(F)(F)F)C(=O)C1CCN(S(=O)(=O)c2ccc3[nH]ncc3c2)CC1
fold change (FC) [1]: 9.3

Cc1cc(NC(=O)CS(=O)(=O)c2cn(Cc3ccc(-c4cnn(C)c4)nc3)c3cc(F)cc(F)c23)no1
EC50 [2]: 310 nM

CC1(C)S[C@@H]2CC[C@]3(CCCN3C(=O)[C@@H]3CCCN3)C(=O)N2[C@@H]1C(N)=O
fold change (FC) [3]: 2.8 | fold change (FC) [4]: 2.7

C[C@@H](C(=O)NS(C)(=O)=O)c1ccc(OS(=O)(=O)C(F)(F)F)cc1
IC50 [5]: 0.1 nM | IC50 [6]: 0.1 nM

CCOc1ccc(-n2c(C(C)N(CC3CCN(Cc4ccc(C5(C(F)(F)F)N=N5)cc4)CC3)C(=O)Cc3ccc(F)c(C(F)(F)F)c3)nc3ncccc3c2=O)cc1 (stereo not given)
inhibition [7]: 80%

CCCCCCCCCCC[C@@H]1CCN[C@H](C(=O)N[C@@H]([C@H]2O[C@H](SC)[C@H](O)[C@@H](O)[C@H]2O)[C@H](C)Cl)C1
fold change (FC) [8]: 25 | Emax [9]: < 71%

CC1(C)S[C@@H]2CC[C@]3(CCCN3C(=O)[C@@H]3CCCN3)C(=O)N2[C@H]1C(N)=O
fold change (FC) [3]: 2.8 | fold change (FC) [4]: 2.7

COc1nc2sc(C(=O)NC3CC3)c(N)c2c(C)c1Cl
Kb [10]: 200 nM

Cc1ccc2c(C(C[N+](=O)[O-])c3cccs3)c(-c3ccccc3)[nH]c2c1 (stereo not given)
Activity [11]: 40% | Emax [12]: 207% | Emax [13]: 225%

N#CCN(Cc1ccccc1)Cc1ccc2ccccc2c1
inhibition [14]: 30%

Cc1cc(OCc2ccncc2)nc2sc(C(=O)NCc3cccc(F)c3F)c(N)c12
EC50 [15]: 95 nM | EC50 [16]: 2400 nM

COc1ccc(Cn2cc(C(=O)N[C@H]3CCCC[C@@H]3O)c3ncccc32)cc1
EC50 [2]: 1800 nM

Cc1ccc([C@H]2CC3CCC([C@H]2c2cc(-c4ccc(Cl)cc4)no2)N3C)cc1 (stereo not given in full)
Emax [17]: 36%
